According to patent US7964613B2 (Asahi Kasei Pharma Corporation, priority 2007, dated 2011):
Counter-ions that a name gives are not always drawn.

How the values were obtained:
intraocular pressure = test: Rabbit intraocular pressure reduction enhancing action, Test Example 7-1 (combination use); format: in vivo, Japanese white rabbit; details: Table 4; 19-1 compound 0.01 weight % aqueous solution 50 μL, Azopt 50 μL; left-right eye difference at 2, 4, 6 hours; six rabbits
Method: However, the effect is not limited to the 19-1 compound, and the ophthalmic solution concentration of the 19-1 compound is not limited to those used in this test example. Moreover, as for the test compound used for combination use, similar effect can be obtained also with the compounds of the present invention represented with the example numbers mentioned in Test Example 3.
As a test compound, the 19-1 compound was dissolved in physiological saline, and the solution was neutralized by addition of sodium hydroxide (pH 7.0 to 8.0) to prepare a 0.01 weight % aqueous solution (19-1 compound aqueous solution). As the drugs for combination use, isopropyl unoprostone (trade name: Rescula, Santen Pharmaceutical) was used as a prostaglandin-related drug, and brinzolamide hydrochloride (trade name: Azopt, Alcon Japan) was used as […], as the marketed formulations as they were.
A Japanese white rabbit having a body weight of about 2 kg was placed in a positioner and naturalized for one week before the experiment. An opthalmologic local anesthesant (Benoxil) was administered to both eyes, and then intraocular pressure before instillation was measured by using a tonometer (Classic 30, Solan). A test aqueous solution or the drug for combination use was administered to the left eye, and the right eye was not treated (control eye). The test groups consisted of (1) control group, (2) group instilled only with the 19-1 compound aqueous solution (single drug group 1), (3) group instilled only with the drug for combination use (single drug group 2), and (4) group instilled with the drug for combination use and the 19-1 compound aqueous solution (combination use group), and six rabbits were used for each group. As for the rabbits of these groups, 50 μL of physiological saline was first instilled to the control group, single drug group 1, and single drug group 2, and the drug for combination use was first instilled in the same volume to the combination use group. […] The intraocular pressure thereafter was measured for each group 2, 4 and 6 hours after the second administration of the test compound, and the difference of the measured values for the left and right eyes at each measurement time was considered an intraocular pressure reduction value of each group. The largest difference of the intraocular pressure values for the left and right eyes among those of the measured values of the measurement times was considered the maximum intraocular pressure reduction value (max ? IOP) of each drug group.

[1] = system: mouse neuroblastoma cell strain N1E-115; test: Inhibitory effect on neurite retraction (LPA-induced); format: cell-based; details: mouse/rat NG108-15; 10 μM compound, 1 μM LPA, N1E-115 cells
Method: An experiment for Inhibitory effect on neurite retraction using mouse neuroblastoma cell strain N1E-115 was performed according to the method of Hirose, M. et al. (J. Cell. Biol., 141, pp. 1625-1636 (1998)). This method utilizes the fact that LPA (lysophosphatidic acid), which is a endogenous substance, induces neurite retraction, and is a method of evaluating how much a drug can inhibit the LPA-induced neurite retraction and thereby evaluating potency of inhibition of neuronal degeneration and potency of neuronal regeneration of the drug. N1E-115 cells cultured in a DMEM solution containing 20% heat-inactivated fetal bovine serum were plated on a 6-well plate (IWAKI) at a density of 40,000 cells/well, and cultured overnight at 37° C. in the same culture medium in a 5% CO2 incubator. In order to induce differentiation of the N1E 115 cells into nerve cells, the culture medium was changed to the serum-free DMEM solution, and the cells were cultured for 1 or 2 days at 37° C. in the 5% CO2 incubator until most of the cells extended the neurites. On the examination day, each compound of the present invention was added at a final concentration of 10 μM, incubation was performed for 30 minutes, then LPA (Sigma) was added at a final concentration of 1 μM, and incubation was further performed for 10 minutes. To the control, the same volume of phosphate buffered saline as the solvent was added. After completion of the incubation, glutaraldehyde was added at a final concentration of 5% to fix the cells. […] The inhibition rate (%) of each drug was calculated by using the following equation. Inhibition rate(%)=100−(RCP obtained with drug to be evaluated−RCP of control)/(RCP obtained with LPA−RCP of control)×100

TNF-α production = test: Inhibitory effect on TNF-α production in mice (LPS); format: in vivo, BALB/c mice; details: Mus musculus, 1.5 h; oral administration of 30 mg/kg, LPS 5 μg i.p. 60 minutes later, plasma after 90 minutes; read-out: TNF-α production suppressing action
Method: BALB/c mice (Japan CRJ, famale) were used as experimental animals. Each test compound was dissolved in distilled water at a concentration suitable for the examination. The weight of each mouse was measured, a test compound solution was orally administered in a volume corresponding to 10 ml/kg, and only distilled water was administered to the control group. Each group consisted of five to seven animals. LPS was dissolved in physiological saline, and intraperitoneally administered to each mouse in an amount of 5 μg. The test compound was administered first, and LPS (lipopolysaccharide, Sigma) was administered 60 minutes later. After 90 minutes, blood was collected from the abdominal large vein in the presence of heparin, and plasma was obtained by centrifugation. TNF-α content in the plasma was measured by using the ELISA method.

[2] = system: rabbit normal intraocular pressure; test: Intraocular pressure reducing action; format: in vivo, Japanese white rabbit; details: Oryctolagus cuniculus, topical; 3 mM aqueous solution, 50 μl to the left eye; max IOP reduction (2, 4, 6 hours) / value immediately before administration; read-out: intraocular pressure reducing degree
Outline: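 Japanese white rabbits (~2 kg) under topical anaesthesia received 50 μl of a 3 mM aqueous test solution in the left eye, right eye untreated. IOP read by tonometer before and at 2, 4, 6 h; maximal left–right difference divided by pre-dose IOP ×100 gives % reduction.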

human ROCK1 = biological target: T1, human ROCK1 (Homo sapiens, UniProt Q13464); test: Measurement of Rho kinase inhibitory activity (ELISA of MBS phosphorylation); format: biochemical; details: human ROCK1, MBS substrate, 100 μM ATP, 30° C. for 10 minutes
T1 construct: His tag (N); host or cells: insect cells (Sf9)
T1 sequence (Q13464 1-727): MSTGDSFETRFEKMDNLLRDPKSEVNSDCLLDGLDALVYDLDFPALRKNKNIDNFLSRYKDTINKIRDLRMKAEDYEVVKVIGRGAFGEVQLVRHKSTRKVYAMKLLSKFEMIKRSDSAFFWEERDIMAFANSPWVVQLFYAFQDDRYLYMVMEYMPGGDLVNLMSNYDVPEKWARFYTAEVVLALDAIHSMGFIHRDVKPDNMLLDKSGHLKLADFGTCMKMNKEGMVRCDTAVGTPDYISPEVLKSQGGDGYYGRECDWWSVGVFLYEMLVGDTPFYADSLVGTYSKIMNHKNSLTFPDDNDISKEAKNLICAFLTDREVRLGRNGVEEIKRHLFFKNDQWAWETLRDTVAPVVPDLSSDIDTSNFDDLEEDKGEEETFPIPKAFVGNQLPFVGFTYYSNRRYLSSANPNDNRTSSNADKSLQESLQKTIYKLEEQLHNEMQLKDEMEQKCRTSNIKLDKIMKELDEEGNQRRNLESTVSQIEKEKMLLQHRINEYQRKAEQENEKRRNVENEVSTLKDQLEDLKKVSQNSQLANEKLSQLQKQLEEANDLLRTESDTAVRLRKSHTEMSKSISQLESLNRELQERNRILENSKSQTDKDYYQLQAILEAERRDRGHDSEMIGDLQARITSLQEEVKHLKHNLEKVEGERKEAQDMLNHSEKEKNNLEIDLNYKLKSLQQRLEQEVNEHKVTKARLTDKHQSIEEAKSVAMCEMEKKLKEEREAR
Outline: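 N-terminal His-tagged human ROCK1 (1-727, Sf9-expressed) phosphorylated plate-immobilized MBS in 20 mM HEPES pH 7.5, 100 μM ATP, 30° C for 10 minutes. Phospho-MBS detected by antibody ELISA (A490); IC50 is concentration giving 50% inhibition.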

[3] = system: rat spinal canal stenosis (cauda equina compression-induced walking dysfunction) model; test: Rat spinal canal stenosis model, walking ability test; format: in vivo; details: treadmill; for walk distance compared with the solvent repetitive administration group: 14th day of repetitive administration; for Inventive compound repetitive administration group (average distance (m)): 14th day of repetitive administration started 4th day after operation, 7 or 8 animals
Excerpt: A rat spinal canal stenosis (cauda equina compression-induced walking dysfunction) model can be prepared according to the method of Nakai, K et al. (Anesth. Analg., 94, pp. 1537-1541 (2002)) or the like. Namely, a rat is anesthetized with pentobarbital sodium, shaved on the back, and fixed in the abdominal position. After disinfection on the back with Isodine Surgical Scrub (Meiji Seika), a lumbar part is cut open along the median to expose the spine. Then, a silicone rubber of 1×4×1.5 mm (height×length×width) is inserted into the fifth lumbar vertebral canal from a small hole on the vertebral arch. Benzylpenicillin potassium (Crystalline Penicillin G Potassium Meiji, Meiji Seika) is dropped on the opened lesion and intramuscularly injected in the femoral region for the purpose of evasion of infectious diseases. The muscles and skin of the opened lesion are sutured with a ligature, and Isodine Surgical Scrub is applied to the sutured portion. Animals of sham group are also prepared according to the aforementioned method, provided that silicone rubber is not inserted.
In walking ability test, evaluation is performed by using a treadmill (Muromachi Kikai). A rat is placed on a traveling belt, adapted to the environment more than 3 minutes under a grid-electrified condition (0.04 to 4 mA), and then made to start walking from a velocity of 10 m/min, and then the velocity is increased by 5 m/min every 3 minutes. The walk is stopped, and electrical stimulation (0.04 to 4 mA) is applied to the rat which has moved to the grid for electrical stimulation provided before the traveling belt. Distance which the animal walked after the animal started the walk until the animal became unable to walk, i.e., the animal came not to walk even if a stimulation (sound, contact, electricity) was added to the animal to urge it to walk, was calculated from the walking time. Before the operation, the walking function test is carried out 3 times to perform training of walk. From the 4th day after the operation, repetitive administration of each compound of the present invention as a test compound was started, and the walking ability test was performed on the 14th day of the administration for the measurement.
Each group consisted of 7 or 8 animals, and the average distance before the administration was the average for the animals of both groups. […] It was confirmed that the compounds of the present invention were useful as medicaments for therapeutic treatment of a disease accompanied by walking dysfunction such as spinal canal stenosis.

Row | Structure (SMILES) | Max IOP (maximum intraocular pressure reduction value) (intraocular pressure) | inhibition at 10 µM [1] | inhibition in vivo at 30 mg/kg (TNF-α production) | inhibition in vivo at 3000 µM [2] | IC50 (human ROCK1) | walk distance compared with the solvent repetitive administration group [3] | Inventive compound repetitive administration group (average distance (m)) [3]
1 | CCN[C@H]1CN(CCCOC)S(=O)(=O)c2sc(S(N)(=O)=O)cc21 [brinzolamide hydrochloride, reference compound] | 2.3 mmHg | – | – | – | – | – | –
2 | Nc1ncc(Cl)c2c(S(=O)(=O)N3CC[C@H](N)C3)cccc12 [Example 39-1, (S)-3-Amino-1-(1-amino-4-chloro-5-isoquinolinesulfonyl)pyrrolidine] | – | ≥ 50% | ≥ 50% | 10 to 20% | < 1000 nM | – | –
3 | O=S(=O)(c1cccc2cncc(Br)c12)N1CC[C@H](NCc2ccco2)C1 [Example 4-1, (S)-3-(2-Furylmethyl)amino-1-(4-bromo-5-isoquinolinesulfonyl)pyrrolidine] | – | – | ≥ 30% | ≥ 20% | < 1000 nM | – | –
4 | O=S(=O)(c1cccc2cncc(Br)c12)N1CC[C@H](NCc2ccc[nH]2)C1 [Example 1-18] | – | ≥ 50% | ≥ 50% | 10 to 20% | < 1000 nM | – | –
5 | O=S(=O)(c1cccc2cncc(Cl)c12)N1CC[C@H](NC2CCOCC2)C1 [Example 19-31] | – | ≥ 50% | ≥ 50% | – | 1000 to 3000 nM | – | –
6 | N[C@H]1CCN(S(=O)(=O)c2cccc3c(O)ncc(F)c23)C1 [Example 29-1, (S)-3-Amino-1-(1-hydroxy-4-fluoro-5-isoquinolinesulfonyl)pyrrolidine] | – | ≥ 50% | ≥ 50% | 10 to 20% | < 1000 nM | – | –
7 | Cc1cncc2cccc(S(=O)(=O)N3CC[C@H](N)C3)c12 [Example 8-1, (S)-3-Amino-1-(4-methyl-5-isoquinolinesulfonyl)pyrrolidine] | – | – | ≥ 50% | ≥ 20% | < 1000 nM | extended the walk distance | 169 m
8 | N[C@H]1CCN(S(=O)(=O)c2cccc3cncc(C4CC4)c23)C1 [Example 11-1, (S)-3-Amino-1-(4-cyclopropyl-5-isoquinolinesulfonyl)pyrrolidine] | – | – | ≥ 30% | 5 to 10% | < 1000 nM | – | –
9 | CN(C)CC(=O)N[C@H]1CCN(S(=O)(=O)c2cccc3cncc(Cl)c23)C1 [Example 57-1, (S)-3-[(2-Dimethylamino)acetyl]amino-1-(4-chloro-5-isoquinolinesulfonyl)pyrrolidine] | – | – | ≥ 30% | ≥ 20% | 1000 to 3000 nM | extended the walk distance | 183 m
10 | CN[C@@H]1CCN(S(=O)(=O)c2cccc3cncc(Cl)c23)C1 [Example 32-2, (R)-1-(4-Chloro-5-isoquinolinesulfonyl)-3-(methylamino)pyrrolidine] | – | ≥ 50% | – | 10 to 20% | < 1000 nM | – | –
11 | CN[C@H]1CCN(S(=O)(=O)c2cccc3c(N)ncc(Br)c23)C1 [Example 42-1, (S)-1-(1-Amino-4-bromo-5-isoquinolinesulfonyl)-3-(methylamino)pyrrolidine] | – | ≥ 50% | – | 5 to 10% | < 1000 nM | – | –
12 | CN[C@H]1CCN(S(=O)(=O)c2cccc3c(N)ncc(Cl)c23)C1 [Example 40-1, (S)-1-(1-Amino-4-chloro-5-isoquinolinesulfonyl)-3-(methylamino)pyrrolidine] | – | ≥ 50% | ≥ 50% | 5 to 10% | 1000 to 3000 nM | – | –
13 | N[C@H]1CCN(S(=O)(=O)c2cccc3cncc(F)c23)C1 [Example 18-1, (S)-3-Amino-1-(4-fluoro-5-isoquinolinesulfonyl)pyrrolidine] | – | ≥ 50% | ≥ 50% | ≥ 20% | 1000 to 3000 nM | – | –
14 | O=S(=O)(c1cccc2cncc(Br)c12)N1CC[C@H](NC2CCOCC2)C1 [Example 1-30] | – | – | ≥ 30% | ≥ 20% | 1000 to 3000 nM | – | –
15 | C#Cc1cncc2cccc(S(=O)(=O)N3CC[C@H](N)C3)c12 [Example 10-1, (S)-3-Amino-1-(4-ethynyl-5-isoquinolinesulfonyl)pyrrolidine] | – | – | ≥ 50% | ≥ 20% | < 1000 nM | – | –
